Measured values: ChEMBL document CHEMBL1201862, “PubChem BioAssay data set” (2004)
Several values for one entry are separate records, joined by “and”; a condition that tells them apart may be missing. Equal entries are not always repeated.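 These data come from cells grown in 96-well plates and exposed to compound for 48 hours at five concentrations. GI50: concentration for 50% inhibition of growth.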 Activity calls are given as the source filed them. Rule as the data show it: active = GI50 up to about 1.1 µM and inactive = higher.

Assays:
Assay in all cases: inhibition of tumour cell growth, NCI panel, 48 h
786-0 = test system: 786-0
A498 = test system: A498
BT-549 = test system: BT-549
CCRF-CEM = test system: CCRF-CEM
COLO 205 = test system: COLO 205
DLD-1 = test system: DLD-1
DMS-273 = test system: DMS-273
DU-145 = test system: DU-145
EKVX = test system: EKVX
HL-60 = test system: HL-60
HOP-18 = test system: HOP-18
HOP-92 = test system: HOP-92
Hs-578T = test system: Hs-578T
IGROV-1 = test system: IGROV-1
KM-20L2 = test system: KM-20L2
KM12 = test system: KM12
LOX IMVI = test system: LOX IMVI
MDA-MB-231 = test system: MDA-MB-231
MDA-MB-435 = test system: MDA-MB-435
MOLT-4 = test system: MOLT-4
Malme-3M = test system: Malme-3M
NCI-H226 = test system: NCI-H226
OVCAR-3 = test system: OVCAR-3
OVCAR-5 = test system: OVCAR-5
PC-3 = test system: PC-3
RXF 393 = test system: RXF 393
SF-539 = test system: SF-539
SK-MEL-2 = test system: SK-MEL-2
SK-OV-3 = test system: SK-OV-3
SNB-78 = test system: SNB-78
SR = test system: SR
T47D = test system: T47D
TK-10 = test system: TK-10
UACC-257 = test system: UACC-257
XF498 = test system: XF498
A549 = test system: A549
ACHN = test system: ACHN
HCC 2998 = test system: HCC 2998
HCT-116 = test system: HCT-116
HCT-15 = test system: HCT-15
HOP-62 = test system: HOP-62
HT-29 = test system: HT-29
K562 = test system: K562
LXFL 529 = test system: LXFL 529
M14 = test system: M14
M19-MEL = test system: M19-MEL
NCI-H23 = test system: NCI-H23
NCI-H522 = test system: NCI-H522
OVCAR-4 = test system: OVCAR-4
OVCAR-8 = test system: OVCAR-8
RPMI-8226 = test system: RPMI-8226
SF-268 = test system: SF-268
SF-295 = test system: SF-295
SK-MEL-28 = test system: SK-MEL-28
SK-MEL-5 = test system: SK-MEL-5
SN12C = test system: SN12C
SNB-19 = test system: SNB-19
SNB-75 = test system: SNB-75
SW-620 = test system: SW-620
U-251 = test system: U-251
UACC-62 = test system: UACC-62
UO-31 = test system: UO-31
CAKI-1 = test system: CAKI-1
DMS-114 = test system: DMS-114
NCI-H460 = test system: NCI-H460
NCI/ADR-RES = test system: NCI/ADR-RES

Measured: GI50

N#Cc1cn(C2OC(CO)C(O)C2O)c2ncnc(N)c12 (centres undefined)
active: 786-0 0.0241 µM | A498 57.4 nM and 114 nM | BT-549 0.0577 µM | CCRF-CEM 16.1 nM and 18 nM | COLO 205 14.6 nM and < 16.4 nM | DLD-1 0.045 µM | DMS-273 0.0409 µM | DU-145 0.0393 µM | EKVX 60.3 nM and 94.8 nM | HL-60 < 10 nM and < 13.8 nM | HOP-18 0.109 µM | HOP-92 46.2 nM and 76.6 nM | Hs-578T 0.0302 µM | IGROV-1 47.1 nM and 23.8 nM | KM-20L2 0.0476 µM | KM12 24.1 nM and 44.4 nM | LOX IMVI 14.7 nM and 24.9 nM | MDA-MB-231 0.0158 µM | MDA-MB-435 < 0.0169 µM | MOLT-4 23.9 nM and 25.3 nM | Malme-3M 39.9 nM and 47.5 nM | NCI-H226 66.4 nM and 66.2 nM | OVCAR-3 25.4 nM and 45 nM | OVCAR-5 112 nM and 81.7 nM | PC-3 0.015 µM | RXF 393 23.2 nM and 21.7 nM | SF-539 45.4 nM and 76.4 nM | SK-MEL-2 18.2 nM and 29.6 nM | SK-OV-3 26 nM and 42.9 nM | SNB-78 0.191 µM | SR < 0.01 µM | T47D 0.0199 µM | TK-10 0.014 µM | UACC-257 62.2 nM and 81.8 nM | XF498 0.00414 µM

O=C1C2ON3c4ccccc4C(=O)C3(c3ccccc3)C2C(=O)N1c1ccccc1 (centres undefined)
inactive: 786-0 > 100 µM | A498 > 100 µM | A549 > 100 µM | ACHN > 100 µM | CCRF-CEM > 100 µM | COLO 205 > 100 µM | DLD-1 > 100 µM | DMS-273 > 100 µM | EKVX > 100 µM | HCC 2998 > 100 µM | HCT-116 > 100 µM | HL-60 > 100 µM | HOP-18 > 100 µM | HOP-62 > 100 µM | HOP-92 > 100 µM | HT-29 > 100 µM | IGROV-1 > 100 µM | K562 > 100 µM | KM-20L2 > 100 µM | LXFL 529 > 100 µM | M14 > 100 µM | M19-MEL > 100 µM | MOLT-4 > 100 µM | Malme-3M > 100 µM | NCI-H226 > 100 µM | NCI-H23 > 100 µM | NCI-H522 > 100 µM | OVCAR-4 > 100 µM | OVCAR-8 > 100 µM | RPMI-8226 > 100 µM | RXF 393 > 100 µM | SF-268 > 100 µM | SF-295 > 100 µM | SF-539 > 100 µM | SK-MEL-28 > 100 µM | SK-MEL-5 > 100 µM | SK-OV-3 > 100 µM | SN12C > 100 µM | SNB-19 > 100 µM | SNB-75 > 100 µM | SNB-78 > 100 µM | SR > 100 µM | SW-620 > 100 µM | U-251 > 100 µM | UACC-257 > 100 µM | UACC-62 > 100 µM | UO-31 > 100 µM | XF498 > 100 µM
> 100 µM: HCT-15

On1c(-c2ccccc2)c(-c2ccccc2N2CCCC2)c2ccccc21
> 100 µM: HCT-15
inactive: 786-0 > 100 µM | A498 > 100 µM | A549 > 100 µM | ACHN > 100 µM | CAKI-1 > 100 µM | CCRF-CEM > 100 µM | COLO 205 > 100 µM | DLD-1 > 100 µM | DMS-114 47.2 µM | DMS-273 > 100 µM | EKVX > 100 µM | HCC 2998 > 100 µM | HCT-116 > 100 µM | HL-60 > 100 µM | HOP-18 > 100 µM | HOP-62 > 100 µM | HOP-92 > 100 µM | HT-29 > 100 µM | IGROV-1 > 100 µM | K562 > 100 µM | KM-20L2 > 100 µM | KM12 > 100 µM | LOX IMVI > 100 µM | M14 > 100 µM | M19-MEL > 100 µM | MOLT-4 > 100 µM | Malme-3M > 100 µM | NCI-H226 > 100 µM | NCI-H23 > 100 µM | NCI-H460 > 100 µM | NCI-H522 > 100 µM | OVCAR-3 > 100 µM | OVCAR-4 > 100 µM | OVCAR-5 > 100 µM | OVCAR-8 > 100 µM | RPMI-8226 > 100 µM | SF-268 > 100 µM | SF-295 > 100 µM | SF-539 > 100 µM | SK-MEL-28 > 100 µM | SK-MEL-2 > 100 µM | SK-MEL-5 > 100 µM | SK-OV-3 > 100 µM | SN12C > 100 µM | SNB-19 > 100 µM | SNB-75 > 100 µM | SNB-78 > 100 µM | SR > 100 µM | SW-620 > 100 µM | TK-10 > 100 µM | U-251 > 100 µM | UACC-257 > 100 µM | UACC-62 > 100 µM | XF498 > 100 µM

NC(CN(O)N=O)C(=O)O (centres undefined)
inactive: ACHN 1.85 µM | DU-145 135 µM | HL-60 9.4 µM | HOP-18 331 µM | HT-29 9.23 µM | KM-20L2 19 µM | M19-MEL 14.1 µM | MDA-MB-231 55.7 µM | MOLT-4 20.1 µM | Malme-3M 54.5 µM | NCI/ADR-RES 17.1 µM | OVCAR-5 5.22 µM | OVCAR-8 12.2 µM | SF-295 5.01 µM | SF-539 8.57 µM | SK-MEL-2 95.9 µM | SNB-78 21.8 µM | T47D 157 µM | XF498 5.71 µM
active: A549 0.202 µM | DLD-1 1.04 µM | DMS-114 0.309 µM | DMS-273 0.817 µM | KM12 0.472 µM | LOX IMVI 0.267 µM
